In ChEMBL document CHEMBL4257560, “Synthesis and antiviral activity of camphor-based 1,3-thiazolidin-4-one and thiazole derivatives as Orthopoxvirus-reproduction inhibitors” (Medchemcomm, 2018) one finds IC50, CC50 and selectivity ratio data, which are given here for 19 compounds.

As usually defined, the IC50 is the concentration that gives 50% inhibition.

In one data set the test system is Vaccinia virus. In words: Antiviral activity against Vaccinia virus Copenhagen infected in African green monkey Vero cells assessed as inhibition of viral reproduction after 4 days by neural red dye-based assay. Format: functional, organism-based, Orthopoxvirus vaccinia.
Data set [1] is described as follows: Cytotoxicity against African green monkey Vero cells after 4 days by neural red dye-based assay. The format is cell-based. The note with it: chlorocebus sabaeus, read-out: TC50.
Data set [2] is described as follows: Selectivity index, ratio of TC50 for African green monkey Vero cells to IC50 for Vaccinia virus Copenhagen. The format is toxicity. The note with it: read-out: Selectivity Index.
The mark [3] stands for this setting: Orthopoxvirus vaccinia, Copenhagen, Vero, 96 h, read-out: IC50.

With `CC1(C)[C@@H]2CC[C@@]1(C)/C(=N/N=C1/NC(=O)CS1)C2`, the half-maximal inhibitory concentration (IC50) result in the data set on Vaccinia virus (vero) was “Not Active”. The CC50 at 96 h in data set [1] turned out to be 305 µM.
As to `CC1(C)[C@@H]2CC[C@@]1(C)/C(=N/NC(N)=S)C2`, the IC50 in the data set with Vaccinia virus (setting [3]) came out at 17.7 µM. Besides, the CC50 at 96 h in data set [1] was 225 µM. In addition, the selectivity ratio in data set [2] came to 13.
For `CCCCN1C(=O)CS/C1=N\N=C1/C[C@H]2CC[C@]1(C)C2(C)C`, in that order: 3.2 µM, 25.2 µM and 8.
On the same counts, the results for `Cc1ccc(/C=C2\S/C(=N\N=C3/C[C@H]4CC[C@]3(C)C4(C)C)NC2=O)cc1` (stereo in doubt) are 9.5 µM, 120 µM and 13.
`CC1CCN(CCC(=O)N[C@@H]2C[C@H]3CC[C@]2(C)C3(C)C)CC1`: the IC50 in the data set with Vaccinia virus (setting [3]) was determined as 2.5 µM.
`CC1(C)[C@@H]2CC[C@@]1(C)/C(=N/Nc1nc(-c3ccccc3)cs1)C2`: the half-inhibitory concentration (IC50) in the data set with Vaccinia virus (setting [3]) came out at 3.2 µM. Further, the CC50 at 96 h in data set [1] stood at 13.9 µM.
Take `Cc1ccc(-c2csc(N/N=C3\C[C@H]4CC[C@]3(C)C4(C)C)n2)cc1`: the half-inhibitory concentration (IC50) in the data set with Vaccinia virus (setting [3]) was determined as 4.5 µM. The CC50 at 96 h in data set [1] worked out at 13.7 µM. Moreover, the selectivity ratio in data set [2] stood at 3.
For `Nc1ccn(C[C@@H](CO)OCP(=O)(O)O)c(=O)n1` [CIDOFOVIR], in that order: 40 µM, 475 µM and 12.
For `CC1(C)[C@@H]2CC[C@@]1(C)/C(=N/N=C1/NC(=S)CS1)C2`, in that order: 3.3 µM, 17.5 µM and 5.
On the same counts, the results for `COc1ccc(-c2csc(N/N=C3\C[C@H]4CC[C@]3(C)C4(C)C)n2)cc1` are 3.7 µM, 93.6 µM and 26.
`C=CCN1C(=O)CS/C1=N\N=C1/C[C@H]2CC[C@]1(C)C2(C)C`: in the data set with Vaccinia virus (setting [3]), the half-inhibitory concentration (IC50) is 14.4 µM. Besides, in data set [1], the CC50 at 96 h worked out at 164 µM. Besides, the selectivity ratio in data set [2] was determined as 11.
Turning to `CC(C)CCN1C(=O)CS/C1=N\N=C1/C[C@H]2CC[C@]1(C)C2(C)C`, in the data set on Vaccinia virus (vero), the concentration for half-maximal inhibition (IC50) entry was “Not Active”. In data set [1], the CC50 at 96 h is 37.5 µM.
With `CC1(C)[C@H]2CC[C@]1(C)[C@H](OC(=O)CCN1CCOCC1)C2`, the IC50 with Vaccinia virus (setting [3]) stood at 3.5 µM.
Take `CC1(C)[C@@H]2CC[C@@]1(C)/C(=N/Nc1nc(-c3ccc([N+](=O)[O-])cc3)cs1)C2`: the IC50 entry in the data set with Vaccinia virus (vero) is “Not Active”. For the same compound, the CC50 at 96 h in data set [1] came out at 261 µM.
Take `CC1(C)[C@@H]2CC[C@@]1(C)/C(=N/Nc1nc(-c3ccc(Cl)cc3)cs1)C2`: in the data set with Vaccinia virus (setting [3]), the IC50 came out at 2.7 µM. The CC50 at 96 h in data set [1] came out at 64.1 µM. In addition, the selectivity ratio in data set [2] stood at 24.
Take `CC1(C)[C@@H]2CC[C@@]1(C)/C(=N/Nc1nc(-c3ccc(F)cc3)cs1)C2`: the IC50 entry in the data set on Vaccinia virus (vero) is recorded as “Not Active”. Further, the CC50 at 96 h in data set [1] stood at 176 µM.
As to `CC1(C)[C@@H]2CC[C@@]1(C)/C(=N/Nc1nc(-c3ccc(Br)cc3)cs1)C2`, in the data set with Vaccinia virus (setting [3]), the IC50 is 2.4 µM. Moreover, the CC50 at 96 h in data set [1] is 77.1 µM. Besides, the selectivity ratio in data set [2] was found to be 32.
For the compound `CC1(C)[C@@H]2CC[C@@]1(C)/C(=N/N=C1\SCC(=O)N1Cc1ccccc1)C2`, the IC50 entry with Vaccinia virus (vero) is recorded as “Not Active”. In data set [1], the CC50 at 96 h amounted to 288 µM.
In the case of `CC1(C)[C@@H]2CC[C@@]1(C)/C(=N/N=C1/NC(=O)/C(=C/c3ccccc3)S1)C2`, the IC50 with Vaccinia virus (setting [3]) was determined as 5.2 µM. Moreover, the CC50 at 96 h in data set [1] came to 14.5 µM. Also, the selectivity ratio in data set [2] was 3.
